Test results from patent US8058475B2, “Substituted cyclohexylmethyl compounds” (Gruenenthal GmbH, priority 2005, dated 2011).
Where two headings read alike, the source gives them in different places.

Molecular target: human μ-opiate receptor (Homo sapiens, UniProt P35372)
Test: Affinity for the human μ-opiate receptor ([3H]-naloxone displacement, SPA, CHO-K1 membrane preparation)
Type: binding
Details: for inhibition at 1 µM: read-out: μ-Opioid receptor, % inhibition [1 μM]; for Ki: read-out: μ-Opioid receptor, Ki
[1] = 1 μM test substance, inhibition of specific [3H]-naloxone binding

Chain of human μ-opiate receptor (P35372 whole entry): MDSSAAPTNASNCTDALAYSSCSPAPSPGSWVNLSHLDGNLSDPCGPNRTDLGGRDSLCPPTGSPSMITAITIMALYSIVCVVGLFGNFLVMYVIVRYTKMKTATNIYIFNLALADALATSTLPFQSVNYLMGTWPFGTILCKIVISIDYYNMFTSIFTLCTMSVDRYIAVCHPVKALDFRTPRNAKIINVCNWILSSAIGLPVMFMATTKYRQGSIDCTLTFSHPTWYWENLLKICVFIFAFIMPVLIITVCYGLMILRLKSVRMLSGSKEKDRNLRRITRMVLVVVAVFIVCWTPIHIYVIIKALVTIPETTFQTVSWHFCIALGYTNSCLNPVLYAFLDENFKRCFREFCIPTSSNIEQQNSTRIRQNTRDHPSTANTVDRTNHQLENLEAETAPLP

SMILES | inhibition at 1 µM [%] | Ki [nM] | μ-Opioid receptor, % inhibition [1 μM] [%] | inhibition at 1 µM [1] [%]
Cc1ccccc1C(=O)NCCC1CCC(C(c2ccccc2)N(C)C)CC1 (single isomer, unassigned) [compound 417, N-{2-[4-(dimethylamino-phenyl-methyl)-cyclohexyl]-ethyl}-2-methyl-benzamide] | 91 | 31 | – | –
CN(C)C(c1ccccc1)C1CCC(CCNC(=O)c2csc(-c3ccccc3)n2)CC1 (centres unmarked) [compound 463, 2-phenyl-thiazole-4-carboxylic acid {2-[4-(dimethylamino-phenyl-methyl)-cyclohexyl]-ethyl}-amide] | 104 | 8.6 | – | –
CN(C)C(c1cccc(F)c1)C1CCC(NC(=O)c2cc(F)cc(F)c2)CC1 (centres unmarked) [compound 204, N-{4-[dimethylamino-(3-fluoro-phenyl)-methyl]-cyclohexyl}-3,5-difluoro-benzamide] | 94 | 18 | – | –
CCCc1ccc(C(=O)NCC2CCC(C(c3cccs3)N(C)C)CC2)cc1 (centres unmarked) [compound 356, N-[4-(dimethylamino-thiophen-2-yl-methyl)-cyclohexylmethyl]-4-propyl-benzamide] | 86 | 120 | – | –
Cc1cc(C(=O)NC2CCC(C(c3ccccc3)N(C)C)CC2)n(C(C)(C)C)n1 (centres unmarked) [compound 247, 2-tert-butyl-5-methyl-2H-pyrazole-3-carboxylic acid [4-(dimethylamino-phenyl-methyl)-cyclohexyl]-amide] | – | 36 | 82 | –
CN(C)C(c1ccc(Cl)cc1)C1CCC(CCNC(=O)c2ccc(F)cc2)CC1 (centres unmarked) [compound 408, N-(2-{4-[(4-chloro-phenyl)-dimethylamino-methyl]-cyclohexyl}-ethyl)-4-fluoro-benzamide] | 82 | 12 | – | –
Cc1cc(C2(O)CCC(C(c3ccccc3)N(C)C)CC2)ccc1F (centres unmarked) [compound 151, 4-(dimethylamino-phenyl-methyl)-1-(4-fluoro-3-methyl-phenyl)-cyclohexanol] | – | – | – | 71
CN(C)C(c1ccccc1)C1CCC(NC(=O)c2cccc(Cl)c2)CC1 (centres unmarked) [compound 187, 3-chloro-N-[4-(dimethylamino-phenyl-methyl)-cyclohexyl]-benzamide] | 100 | 8.5 | – | –
CN(C)C(c1ccccc1)C1CCC(NC(=O)CC(C)(C)C)CC1 (single isomer, unassigned) [compound 246, N-[4-(dimethylamino-phenyl-methyl)-cyclohexyl]-3,3-dimethyl-butyramide] | – | 39 | 82 | –
COc1ccccc1C(=O)NCC1CCC(C(c2cccs2)N(C)C)CC1 (centres unmarked) [compound 305, N-[4-(dimethylamino-thiophen-2-yl-methyl)-cyclohexylmethyl]-2-methoxy-benzamide] | 98 | 12 | – | –
CC(=O)N(C(C)Cc1c[nH]c2ccccc12)C1CCC(C(c2ccccc2)N(C)C)CC1 (centres unmarked) [compound 177] | – | 7.2 | 86 | –
Cc1c(S(=O)(=O)c2ccc(Cl)cc2)csc1C(=O)NC1CCC(C(c2ccccc2)N(C)C)CC1 (centres unmarked) [compound 233, 4-(4-chloro-benzenesulfonyl)-3-methyl-thiophene-2-carboxylic acid [4-(dimethylamino-phenyl-methyl)-cyclohexyl]-amide] | 84 | 71 | – | –
CN(C)C(c1ccc(Cl)cc1)C1CCC(CCNC(=O)c2ccccc2Br)CC1 (centres unmarked) [compound 395, 2-bromo-N-(2-{4-[(4-chloro-phenyl)-dimethylamino-methyl]-cyclohexyl}-ethyl)-benzamide] | 81 | 46 | – | –
Cc1ccccc1C(=O)NCC1CCC(C(c2ccccc2)N(C)C)CC1 (single isomer, unassigned) [compound 325, N-[4-(dimethylamino-phenyl-methyl)-cyclohexylmethyl]-2-methyl-benzamide] | – | 34 | 94 | –
CN(C)C(c1ccccc1)C1CCC(NC(=O)c2ccccc2Br)CC1 (centres unmarked) [compound 286, 2-bromo-N-[4-(dimethylamino-phenyl-methyl)-cyclohexyl]-benzamide] | 71 | 54 | – | –
CN(C)C(c1cccs1)C1CCC(CNC(=O)c2csc3ccccc23)CC1 (centres unmarked) [compound 302, benzo[b]thiophene-3-carboxylic acid [4-(dimethylamino-thiophen-2-yl-methyl)-cyclohexylmethyl]-amide] | 99 | 1.6 | – | –
CN(C)C(CCc1ccccc1)C1CCC(NC(=O)c2cc(F)ccc2F)CC1 (centres unmarked) [compound 276, N-[4-(1-dimethylamino-3-phenyl-propyl)-cyclohexyl]-2,5-difluoro-benzamide] | 74 | 65 | – | –
CN(C)C(c1cccc(F)c1)C1CCC(NC(=O)Cc2ccccc2)CC1 (centres unmarked) [compound 240, N-{4-[dimethylamino-(3-fluoro-phenyl)-methyl]-cyclohexyl}-2-phenyl-acetamide] | 82 | 51 | – | –

SMILES | inhibition at 1 µM [%] | Ki [nM] | μ-Opioid receptor, % inhibition [1 μM] [%] | inhibition at 1 µM [1] [%]
Cc1cc(C(=O)NC2CCC(C(c3cccc(F)c3)N(C)C)CC2)c(C)o1 (centres unmarked) [compound 265, 2,5-dimethyl-furan-3-carboxylic acid {4-[dimethylamino-(3-fluoro-phenyl)-methyl]-cyclohexyl}-amide] | 78 | 140 | – | –
CN(C)C(c1cccc(F)c1)C1CCC(CCNC(=O)c2ccc(Cl)cc2)CC1 (centres unmarked) [compound 406, 4-chloro-N-(2-{4-[dimethylamino-(3-fluoro-phenyl)-methyl]-cyclohexyl}-ethyl)-benzamide] | 81 | 40 | – | –
Cc1ccccc1C(=O)NCC1CCC(C(c2cccc(F)c2)N(C)C)CC1 (centres unmarked) [compound 384, N-{4-[dimethylamino-(3-fluoro-phenyl)-methyl]-cyclohexylmethyl}-2-methyl-benzamide] | 82 | 38 | – | –
COc1ccc(C(=O)NC2CCC(C(c3cccs3)N(C)C)CC2)c(OC)c1 (centres unmarked) [compound 202, N-[4-(dimethylamino-thiophen-2-yl-methyl)-cyclohexyl]-2,4-dimethoxy-benzamide] | 94 | 31 | – | –
CN(C)C(c1ccc(F)cc1)C1CCC(CCNC(=O)c2csc(-c3ccccc3)n2)CC1 (centres unmarked) [compound 464, 2-phenyl-thiazole-4-carboxylic acid (2-{4-[dimethylamino-(4-fluoro-phenyl)-methyl]-cyclohexyl}-ethyl)-amide] | 92 | 75 | – | –
CCSc1ncccc1C(=O)NCC1CCC(C(c2cccc(F)c2)N(C)C)CC1 (centres unmarked) [compound 388, N-{4-[dimethylamino-(3-fluoro-phenyl)-methyl]-cyclohexylmethyl}-2-ethylsulfanyl-nicotinamide] | 81 | 36 | – | –
CN(C)C(c1ccc(Cl)cc1)C1CCC(CCNC(=O)c2cc(F)cc(F)c2)CC1 (centres unmarked) [compound 434, N-(2-{4-[(4-chloro-phenyl)-dimethylamino-methyl]-cyclohexyl}-ethyl)-3,5-difluoro-benzamide] | 85 | 24 | – | –
CSc1ncccc1C(=O)NCC1CCC(C(c2ccccc2)N(C)C)CC1 (centres unmarked) [compound 299, N-[4-(dimethylamino-phenyl-methyl)-cyclohexylmethyl]-2-methylsulfanyl-nicotinamide] | 100 | 1 | – | –
CN(C)C(c1ccc(F)cc1)C1CCC(CCNC(=O)c2cccc(Cl)c2)CC1 (single isomer, unassigned) [compound 422, 3-chloro-N-(2-{4-[dimethylamino-(4-fluoro-phenyl)-methyl]-cyclohexyl}-ethyl)-benzamide] | 83 | 35 | – | –
CN(C)C(CCc1ccccc1)C1CCC(NC(=O)c2cccc(Cl)c2)CC1 (centres unmarked) [compound 241, 3-chloro-N-[4-(1-dimethylamino-3-phenyl-propyl)-cyclohexyl]-benzamide] | 82 | 68 | – | –
CN(C)C(c1cccc(F)c1)C1CCC(O)(c2cc(Cl)cc(Cl)c2)CC1 (centres unmarked) [compound 155, 1-(3,5-dichloro-phenyl)-4-[dimethylamino-(3-fluoro-phenyl)-methyl]-cyclohexanol] | – | – | – | 77
CN(C)C(c1ccccc1)C1CCC(CCNC(=O)c2ccc([N+](=O)[O-])cc2)CC1 (centres unmarked) [compound 458, N-{2-[4-(dimethylamino-phenyl-methyl)-cyclohexyl]-ethyl}-4-nitro-benzamide] | 93 | 49 | – | –
CN(C)C(c1ccccc1)C1CCC(CCNC(=O)c2ccc(F)c(F)c2)CC1 (centres unmarked) [compound 444, N-{2-[4-(dimethylamino-phenyl-methyl)-cyclohexyl]-ethyl}-3,4-difluoro-benzamide] | 101 | 11 | – | –
Cc1ccc(Oc2ncccc2C(=O)NCC2CCC(C(c3cccs3)N(C)C)CC2)cc1 (centres unmarked) [compound 352, N-[4-(dimethylamino-thiophen-2-yl-methyl)-cyclohexylmethyl]-2-p-tolyloxy-nicotinamide] | 87 | – | – | –
CN(C)C(c1cccs1)C1CCC(CNC(=O)Cc2ccc(Cl)cc2)CC1 (centres unmarked) [compound 311, 2-(4-chloro-phenyl)-N-[4-(dimethylamino-thiophen-2-yl-methyl)-cyclohexyl-methyl]-acetamide] | 98 | 11 | – | –
CN(C)C(c1ccccc1)C1CCC(CCNC(=O)c2cccc(Cl)c2)CC1 (single isomer, unassigned) [compound 397, 3-chloro-N-{2-[4-(dimethylamino-phenyl-methyl)-cyclohexyl]-ethyl}-benzamide] | 97 | 7.2 | – | –
CC(C)S(=O)(=O)c1csc(C(=O)NCC2CCC(C(c3cccs3)N(C)C)CC2)c1Cl (centres unmarked) [compound 367, 3-chloro-4-(propane-2-sulfonyl)-thiophene-2-carboxylic acid [4-(dimethylamino-thiophen-2-yl-methyl)-cyclohexylmethyl]-amide] | 85 | 110 | – | –
COc1cccc(C2(O)CCC(C(c3ccc(Cl)cc3)N(C)C)CC2)c1 (centres unmarked) [compound 164, 4-[(4-chloro-phenyl)-dimethylamino-methyl]-1-(3-methoxy-phenyl)-cyclohexanol] | – | – | – | 58
